Test results published in US20250034159A1, “INHIBITORS OF EPIDERMAL GROWTH FACTOR RECEPTOR” (ORIC Pharmaceuticals, Inc., priority 2021, published 2025).
Like-named read-outs stand apart in the source and are kept apart here.

Experiments:
BaF3_EGFR d19/CS cells = experiment: Biological Activity Assay D: BaF3 cell proliferation assay, EGFR exon 19 deletion/C797S (BaF3 d19/CS); format: cell-based; conditions: Ba/F3 EGFR, read-out: BaF3 d19/CS IC50
[1] = biological target: recombinant human EGFR exon 19 deletion/C797S double mutant protein (Homo sapiens (Human), UniProt P00533, C797S/DEL746-750); experiment: Biological Activity Assay C: biochemical assay against EGFR exon 19 deletion/C797S protein (EGFR d19/CS)
Method in brief: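 Compounds were tested as 16-point serial dilutions (final DMSO 2.5%) with a Phosphosens peptide sensor/ATP working solution (40 uM/4 mM). The signal was read kinetically over 90 cycles at 120 s intervals. IC50s came from 4-parameter fits of per-well slopes.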

BaF3_EGFR LR/CS cells = experiment: Biological Activity Assay D: BaF3 cell proliferation assay, EGFR L858R/C797S mutant (BaF3 LR/CS); format: cell-based; conditions: Ba/F3 EGFR, read-out: BaF3 LR/CS IC50
Ba/F3_EGFR WT cells = experiment: Biological Activity Assay D: BaF3 cell proliferation assay, EGFR wild-type (BaF3 WT); format: cell-based; conditions: Ba/F3 EGFR, read-out: BaF3 WT IC50
[2] = BaF3_EGFR d19/CS cells, ~72 hours, CellTiter-Glo
[3] = BaF3_EGFR LR/CS cells, ~72 hours, CellTiter-Glo
[4] = Ba/F3_EGFR WT cells, ~72 hours, CellTiter-Glo

Sequence of recombinant human EGFR exon 19 deletion/C797S double mutant protein (P00533 other isoform, or with tags, fused parts or gaps C797S/del 1-668/del 746-750 limits assumed): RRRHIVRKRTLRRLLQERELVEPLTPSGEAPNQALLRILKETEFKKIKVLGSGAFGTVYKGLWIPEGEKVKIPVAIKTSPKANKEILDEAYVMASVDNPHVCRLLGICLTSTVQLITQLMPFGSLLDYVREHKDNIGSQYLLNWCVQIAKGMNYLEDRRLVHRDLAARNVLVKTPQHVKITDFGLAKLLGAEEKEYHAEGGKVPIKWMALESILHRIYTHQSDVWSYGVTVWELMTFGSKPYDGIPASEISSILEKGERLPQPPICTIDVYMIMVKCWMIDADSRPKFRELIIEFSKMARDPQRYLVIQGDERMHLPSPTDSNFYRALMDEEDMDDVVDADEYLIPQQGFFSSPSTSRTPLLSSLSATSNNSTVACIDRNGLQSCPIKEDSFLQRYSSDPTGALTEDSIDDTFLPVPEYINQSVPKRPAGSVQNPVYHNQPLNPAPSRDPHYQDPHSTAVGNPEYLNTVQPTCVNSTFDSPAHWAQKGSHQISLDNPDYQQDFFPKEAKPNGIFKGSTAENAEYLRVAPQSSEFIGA

Structure (SMILES) | IC50 (BaF3_EGFR d19/CS cells; [2]) | IC50 [1] | IC50 (BaF3_EGFR LR/CS cells; [3]) | IC50 (Ba/F3_EGFR WT cells; [4]) | IC50 (BaF3_EGFR d19/CS cells; 72 h) | IC50 (BaF3_EGFR LR/CS cells; 72 h) | IC50 (Ba/F3_EGFR WT cells; 72 h)
CCn1cc(-c2ncnc3oc(-c4ccccc4)cc23)c(-c2ccc(F)cc2)n1 [Example 179, 4-[1-ethyl-3-(4-fluorophenyl)-1H-pyrazol-4-yl]-6-phenylfuro[2,3-d]pyrimidine] |  | 0.39 nM |  |  | 41 nM | 17.2 nM | 2200 nM
O=C(c1ccccc1)N1CC=C(c2cc3c(-c4cn(C5CS(=O)(=O)C5)nc4-c4ccc(F)cc4)ncnc3o2)CC1 [Example 180, 3-{4-[6-(1-benzoyl-1,2,3,6-tetrahydropyridin-4-yl)furo[2,3-d]pyrimidin-4-yl]-3-(4-fluorophenyl)-1H-pyrazol-1-yl}-1λ6-thietane-1,1-dione] | 161 nM | 0.39 nM | 128 nM | 2920 nM |  |  | 
CS(=O)(=O)N1CC=C(c2cc3c(-c4cn(C5CS(=O)(=O)C5)nc4-c4ccc(F)cc4)ncnc3o2)CC1 [Example 181, 3-[3-(4-fluorophenyl)-4-{6-[1-(methanesulfonyl)-1,2,3,6-tetrahydropyridin-4-yl]furo[2,3-d]pyrimidin-4-yl}-1H-pyrazol-1-yl]-1λ6-thietane-1,1-dione] | 97 nM | 0.27 nM | 79.3 nM | 2110 nM |  |  | 
O=S1(=O)CC(n2cc(-c3ncnc4oc(-c5ccccc5C(F)(F)F)cc34)c(-c3ccc(F)cc3)n2)C1 [Example 182, 3-[3-(4-fluorophenyl)-4-{6-[2-(trifluoromethyl)phenyl]furo[2,3-d]pyrimidin-4-yl}-1H-pyrazol-1-yl]-1λ6-thietane-1,1-dione] | 392 nM | 1.65 nM | 444 nM | > 20000 nM |  |  | 
O=S1(=O)CC(n2cc(-c3ncnc4oc(-c5cccnn5)cc34)c(-c3ccc(F)cc3)n2)C1 [Example 187, 3-{3-(4-fluorophenyl)-4-[6-(pyridazin-3-yl)furo[2,3-d]pyrimidin-4-yl]-1H-pyrazol-1-yl}-1λ6-thietane-1,1-dione] | 589 nM | 3.36 nM | 1240 nM | 9020 nM |  |  | 
O=S1(=O)CC(n2cc(-c3ncnc4oc(-c5cnccn5)cc34)c(-c3ccc(F)cc3)n2)C1 [Example 188, 3-{3-(4-fluorophenyl)-4-[6-(pyrazin-2-yl)furo[2,3-d]pyrimidin-4-yl]-1H-pyrazol-1-yl}-1λ6-thietane-1,1-dione] | 246 nM | 2.23 nM | 489 nM | 11700 nM |  |  | 
O=S1(=O)CC(n2cc(-c3ncnc4oc(-c5cccc(CN6CCOCC6)c5)cc34)c(-c3ccc(F)cc3)n2)C1 [Example 190, 3-[3-(4-fluorophenyl)-4-(6-{3-[(morpholin-4-yl)methyl]phenyl}furo[2,3-d]pyrimidin-4-yl)-1H-pyrazol-1-yl]-16-thietane-1,1-dione] | 59.1 nM | 0.18 nM | 64 nM | 2160 nM |  |  | 
CC(=O)N1CC=C(c2nc3c(-c4cn(C5CS(=O)(=O)C5)nc4-c4ccc(F)cc4)ncnc3[nH]2)CC1 [Example 191, 3-{4-[8-(1-acetyl-1,2,3,6-tetrahydropyridin-4-yl)-9H-purin-6-yl]-3-(4-fluorophenyl)-1H-pyrazol-1-yl}-1λ6-thietane-1,1-dione] | > 20000 nM | 0.65 nM | > 20000 nM | > 20000 nM |  |  | 
O=S1(=O)CC(n2cc(-c3ncnc4oc(-c5ncccn5)cc34)c(-c3ccc(F)cc3)n2)C1 [Example 195, 3-{3-(4-fluorophenyl)-4-[6-(pyrimidin-2-yl)furo[2,3-d]pyrimidin-4-yl]-1H-pyrazol-1-yl}-1λ6-thietane-1,1-dione] | 365 nM | 6.89 nM | 799 nM | 6000 nM |  |  | 
O=S1(=O)CC(n2cc(-c3ncnc4oc(-c5ccncn5)cc34)c(-c3ccc(F)cc3)n2)C1 [Example 196, 3-{3-(4-fluorophenyl)-4-[6-(pyrimidin-4-yl)furo[2,3-d]pyrimidin-4-yl]-1H-pyrazol-1-yl}-1λ6-thietane-1,1-dione] | 133 nM | 0.89 nM | 212 nM | 1740 nM |  |  | 
Cn1cnc(-c2cc3c(-c4cn(C5CS(=O)(=O)C5)nc4-c4ccc(F)cc4)ncnc3o2)c1 [Example 200, 3-{3-(4-fluorophenyl)-4-[6-(1-methyl-1H-imidazol-4-yl)furo[2,3-d]pyrimidin-4-yl]-1H-pyrazol-1-yl}-16-thietane-1,1-dione] |  | 0.13 nM |  |  | 8.78 nM | 5.04 nM | 412 nM
Cn1ccnc1-c1cc2c(-c3cn(C4CS(=O)(=O)C4)nc3-c3ccc(F)cc3)ncnc2o1 [Example 201, 3-{3-(4-fluorophenyl)-4-[6-(1-methyl-1H-imidazol-2-yl)furo[2,3-d]pyrimidin-4-yl]-1H-pyrazol-1-yl}-1λ6-thietane-1,1-dione] | 142 nM | 0.52 nM | 200 nM | 1580 nM |  |  | 

Continued, in another order:

IC50 (BaF3_EGFR d19/CS cells; [2]) | IC50 [1] | IC50 (BaF3_EGFR LR/CS cells; [3]) | IC50 (Ba/F3_EGFR WT cells; [4]) | Structure (SMILES) | IC50 (BaF3_EGFR d19/CS cells; 72 h) | IC50 (BaF3_EGFR LR/CS cells; 72 h) | IC50 (Ba/F3_EGFR WT cells; 72 h)
140 nM | 0.36 nM | 134 nM | 2540 nM | NC(=O)c1cccc(-c2cc3c(-c4cn(C5CS(=O)(=O)C5)nc4-c4ccc(F)cc4)ncnc3o2)c1 [Example 176, 3-{4-[1-(1,1-dioxo-1λ6-thietan-3-yl)-3-(4-fluorophenyl)-1H-pyrazol-4-yl]furo[2,3-d]pyrimidin-6-yl}benzamide] |  |  | 
187 nM | 2.27 nM | 89.7 nM | 5200 nM | O=S1(=O)CC(n2cc(-c3ncnc4oc(-c5cccc(C6CC6)c5)cc34)c(-c3ccc(F)cc3)n2)C1 [Example 178, 3-{4-[6-(3-cyclopropylphenyl)furo[2,3-d]pyrimidin-4-yl]-3-(4-fluorophenyl)-1H-pyrazol-1-yl}-16-thietane-1,1-dione] |  |  | 
146 nM | 0.14 nM | 145 nM | 5420 nM | NC(=O)c1ccccc1-c1cc2c(-c3cn(C4CS(=O)(=O)C4)nc3-c3ccc(F)cc3)ncnc2o1 [Example 183, 2-{4-[1-(1,1-dioxo-1λ6-thietan-3-yl)-3-(4-fluorophenyl)-1H-pyrazol-4-yl]furo[2,3-d]pyrimidin-6-yl}benzamide] |  |  | 
348 nM | 0.63 nM | 186 nM | 4450 nM | Fc1ccc(-c2nn([C@@H]3C[C@H]4CC[C@@H](C3)O4)cc2-c2ncnc3oc(-c4ccccc4)cc23)cc1 [Example 186, 4-{3-(4-fluorophenyl)-1-[(1R,3s,5S)-8-oxabicyclo[3.2.1]octan-3-yl]-1H-pyrazol-4-yl}-6-phenylfuro[2,3-d]pyrimidine] |  |  | 
5.86 nM | 0.26 nM | 5.51 nM | 132 nM | C[C@@H]1C[C@@H](n2cc(-c3ncnc4oc(-c5ccccc5)cc34)c(-c3ccc(F)cc3)n2)CN1S(C)(=O)=O [Example 189, 4-{3-(4-fluorophenyl)-1-[(3R,5R)-1-(methanesulfonyl)-5-methylpyrrolidin-3-yl]-1H-pyrazol-4-yl}-6-phenylfuro[2,3-d]pyrimidine] |  |  | 
274 nM | 0.83 nM | 175 nM | 3610 nM | CS(=O)(=O)[C@H]1C[C@H](n2cc(-c3ncnc4oc(-c5ccccc5)cc34)c(-c3ccc(F)cc3)n2)C1 [Example 194, 4-{3-(4-fluorophenyl)-1-[(1r,3r)-3-(methanesulfonyl)cyclobutyl]-1H-pyrazol-4-yl}-6-phenylfuro[2,3-d]pyrimidine] |  |  | 
46.5 nM | 0.45 nM | 12.8 nM | 139 nM | C[C@H]1C[C@H](n2cc(-c3ncnc4oc(-c5ccccc5)cc34)c(-c3ccc(F)cc3)n2)CN1S(C)(=O)=O [Example 197, 4-{3-(4-fluorophenyl)-1-[(3S,5S)-1-(methanesulfonyl)-5-methylpyrrolidin-3-yl]-1H-pyrazol-4-yl}-6-phenylfuro[2,3-d]pyrimidine] |  |  | 
51.9 nM | 0.72 nM | 17.9 nM | 703 nM | C[C@H]1C[C@@H](n2cc(-c3ncnc4oc(-c5ccccc5)cc34)c(-c3ccc(F)cc3)n2)CN1S(C)(=O)=O [Example 198, 4-{3-(4-fluorophenyl)-1-[(3R,5S)-1-(methanesulfonyl)-5-methylpyrrolidin-3-yl]-1H-pyrazol-4-yl}-6-phenylfuro[2,3-d]pyrimidine] |  |  | 
512 nM | 1.48 nM | 219 nM | 2350 nM | CC1(C)CC(n2cc(-c3ncnc4oc(-c5ccccc5)cc34)c(-c3ccc(F)cc3)n2)CCO1 (centres unmarked) [Example 202, 4-[1-(2,2-dimethyloxan-4-yl)-3-(4-fluorophenyl)-1H-pyrazol-4-yl]-6-phenylfuro[2,3-d]pyrimidine] |  |  | 
17.1 nM | 0.14 nM | 10.6 nM | 289 nM | CN(c1cccc(-c2cc3c(-c4cn(C5CS(=O)(=O)C5)nc4-c4ccc(F)cc4)ncnc3o2)c1)S(C)(=O)=O [Example 203, N-(3-{4-[1-(1,1-dioxo-1λ6-thietan-3-yl)-3-(4-fluorophenyl)-1H-pyrazol-4-yl]furo[2,3-d]pyrimidin-6-yl}phenyl)-N-methylmethanesulfonamide] |  |  | 
1220 nM | 10.2 nM | 288 nM | 8130 nM | Fc1ccc(-c2nn(CC3CCC(F)(F)CC3)cc2-c2ncnc3oc(-c4ccccc4)cc23)cc1 [Example 204, 4-{1-[(4,4-difluorocyclohexyl)methyl]-3-(4-fluorophenyl)-1H-pyrazol-4-yl}-6-phenylfuro[2,3-d]pyrimidine] |  |  | 
